This note sets out measurements from patent US9827181B2, “Method and pharmaceutical composition for hair growth” (INDUSTRIAL TECHNOLOGY RESEARCH INSTITUTE, priority 2013, dated 2017).

“Also recorded” adds a separate entry of the source.

The subject of experiment [1] is hair follicles on the dorsal skin of female C57BL/6 mice. Briefly: mouse model of hair regeneration (dorsal skin, refractory telogen phase).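 Further: mice roughly 8 weeks old, negative control skin section treated with 100% alcohol, regrowth checked daily with day counted from start of dosing.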 The conditions noted are these: high dosage level (2000 μM) on dorsal skin, once a day for 10 days, negative = no hair growth.
Description: The mouse model adopts female C57BL/6 mice (about 8 weeks).
In the present disclosure, the sample solution is applied on the dorsal skin, where the hair follicle stays at the refractory telogen phase, to observe whether the peptides are beneficial to hair growth.
The sample solution is applied on each of the sections for 10 days. The administration of the sample solution includes, but not limited to, the injection (50 μl) and the coating (10 μl). In addition, the dosage of the sample solution includes, but not limited to, the high dosage level (2000 μM) and the low dosage level (200 μM).
In order to avoid experimental error due to manual operation, a positive control and a negative control are predetermined on two sections. […] The second section 2 is coated with high dosage level of HGP or the pharmaceutical composition for 10 days (once a day). The third section 3 is coated with low dosage level of HGP or the pharmaceutical composition for 10 days (once a day). The fourth section 4 is coated with 100% alcohol for 10 days (once a day). The fourth section 4 is regarded as the negative control. The fifth section 5 is continuously injected with the high dosage of HGP or pharmaceutical composition for 10 days (once a day). The sixth section 6 is continuously injected with the low dosage of HGP or pharmaceutical composition for 10 days (once a day). The HGP prepared for the sections is the same amino acid sequence.
HGP or pharmaceutical composition having the same as referred at the table 1 is implemented through the above-mentioned process and then the hair regeneration condition is recorded everyday. Since the period of the refractory telogen phase is 28 days, it is regards as a negative result that no hair regeneration is observed at thirtieth day after the administration of the sample solution.
The number x of the hair growth in the table 3 means that the hair regeneration condition is observed at the x'th day after the high dosage level is administrated on the dorsal skin. For instance, the number (x=5) means that the hair growth is observed at fifth day. Furthermore, the symbol NA represents the need for further analysis. […] In addition, the “negative” represents no hair growth by using the peptide in accordance with the experimental number.
The subject of experiment [2] is marker CK15 of the hair follicle stem cells. Put plainly: immuno-fluorescent staining, marker CK15. It is filed as in vivo, mouse. The conditions noted are these: mice injected with the peptide, FIG. 3. How it is done:
(§1) After the female C57BL/6 mice are injected with the SEQ ID No. 1 peptide, the immuno-fluorescent staining with the marker CK15 is performed so as to observe whether the genes, such as Wnt3a, Wnt/β-catenin are activated or not.
(§2) Thus, the SEQ ID No: 1 peptide enables activation of the regeneration of the hair follicle stem cells. In order to realize how the SEQ ID No: 1 peptide activates the regeneration of the hair follicle stem cells, the immuno-fluorescent staining in accordance with Win/β-catenin signal transduction pathway is performed. […] Since β-catenin is a downstream gene of Wnt signal transduction pathway, activating β-catenin allows the initiation of a Wnt signal transduction pathway so as to regenerate the hair follicle stem cell. […] In other words, the SEQ ID No: 1 peptide may activate the Wnt/β-catenin signal transduction pathway to activate the regeneration of the hair follicle stem cells.

The subject of experiment [3] is Wnt3a in the hair follicle stem cells. Briefly: immuno-fluorescent staining, Wnt3a marker. It is filed as in vivo, mouse. As to conditions: FIG. 4. On the procedure: as §1, §2
The test system of experiment [4] is β-catenin in the hair follicle stem cells. Put plainly: immuno-fluorescent staining, β-catenin marker. It is filed as in vivo, mouse. As to conditions: FIG. 5, listed as SEQ ID No: 1. On the procedure: as §1, §2
In experiment [5] the test system is β-catenin activity in Human Hair Follicular Keratinocytes (HHFK). Put plainly: TCF reporter assay in HHFK cell line. It is filed as cell-based. As to conditions: HHFK cells, 200 μM peptide, TOP/FOP reporter, FIG. 6; listed as SEQ ID No: 1. How it is done:
FIG. 6 illustrates a schematic view of a TCF reporter assay in Human Hair Follicular Keratinocytes (HHFK) cell line. TOP represents that the reporter gene has a functional binding site where β-catenin is bound. […] CTL represents that HHFK cell line is not treated with any stimulant. iPept-1 means that HHFK cell line is treated with the SEQ ID No: 1 peptide.
(§3) In the present disclosure, Human Hair Follicular Keratinocytes (HHFK), HaCaT Keratinocyte and macrophages are used as cell models for realizing the mechanism. Reporter assay and QRT-PCR are used as bioactivity assays to identify how the SEQ ID No. 1 peptide improves hair growth.
A general note: Reporter assays use an easily measured gene product as a stand-in for the process of interest.

The subject of experiment [6] is β-catenin activity in HaCaT Keratinocytes. Put plainly: TCF reporter assay in HaCaT Keratinocyte cell line. The conditions noted are these: HaCaT cells, 200 μM peptide, TOP/FOP reporter, FIG. 7; listed as SEQ ID No: 1. Type of experiment: cell-based. How it is done: FIG. 7 illustrates a schematic view of a TCF reporter assay in HaCaT Keratinocyte cell line. TOP represents that the reporter gene has a functional binding site where β-catenin is bound. […] CTL represents that HaCaT Keratinocytes are not treated with any stimulant. iPept-1 means that HaCaT Keratinocytes are treated with the SEQ ID No: 1 peptide.
as §3

The subject of experiment [7] is Wnt16 gene expression in macrophages. Put plainly: RT-PCR / QRT-PCR analysis in macrophages, Wnt16. Type of experiment: cell-based, human. As to conditions: 200 μM peptide for 8 hours. How it is done: (§4) The SEQ ID No. 1 peptide is treated in HHFK, HaCaT and human macrophage to study the hair growth mechanism induced by the SEQ ID No. 1 peptide. In the present disclosure, Human Hair Follicular Keratinocytes (HHFK), HaCaT Keratinocyte and macrophages are used as cell models for realizing the mechanism. Reporter assay and QRT-PCR are used as bioactivity assays to identify how the SEQ ID No. 1 peptide improves hair growth. After macrophages are treated with the 200 μM SEQ ID No: 1 peptide (iPept-1) for 8 hours, gene regulation of Wnt family (Wnt1, Wnt2, Wnt3a, Wnt4, Wnt6, Wnt7a, Wnt7b, Wnt10a, Wnt10b, Wnt16) are detected by RT-PCR and QRT-PCR tests as shown in FIGS. 8 and 9. It is observed that the transcription level of Wnt16 and Wnt7b increases in accordance with the treatment of iPept-1.

Experiment [8] concerns Wnt7b gene expression in macrophages. Briefly: RT-PCR analysis in macrophages, Wnt7b. It is filed as cell-based, human. As to conditions: 200 μM peptide for 8 hours. How it is done:
as §4

Turning to “FGSFGLITHTI (a designed peptide according to experiment) [P39]”, in experiment [1], the “Number x (hair regeneration observed at the x'th day)” value (“Number x” for short) was “negative”.

Take “FGSFGSITHTI (a designed peptide according to experiment) [P40]”: the “Number x” value in experiment [1] is on record as “negative”.

On to “FGSFVLITHTI (a designed peptide according to experiment) [P38]”, for which, in experiment [1], the “Number x” value is recorded as “negative”.

Turning to “FGSHVLITHTI (a designed peptide according to experiment) [P37]”, the “Number x” value in experiment [1] is “negative”.

For “FGTHVLITHTI (a designed peptide according to experiment) [P36]”, the “Number x” value in experiment [1] amounted to 15 days.

Regarding “FSTHVLITHTI (a designed peptide according to experiment) [P35]”, the “Number x” value in experiment [1] stood at 15 days.

Consider “GSFGFLITHTI (a designed peptide according to experiment) [P33]”, for which the “Number x” value in experiment [1] is “negative”.

Take “GSFGSFITHTI (a designed peptide according to experiment) [P34]”: the “Number x” value in experiment [1] is given as “negative”.

As for “GSFGVLITHTI (a designed peptide according to experiment) [P32]”, the “Number x” value in experiment [1] was “negative”.

As to “GSFHVLITHTI (a designed peptide according to experiment) [P31]”, the “Number x” value in experiment [1] is reported as “negative”.

With “GSTHVLITHTI (a designed peptide according to experiment) [P30]”, in experiment [1], the “Number x” value amounted to 22 days.

As for “HVLIT (a designed peptide according to experiment) [P2]”, the “Number x” value in experiment [1] was 17 days.

Take “HVLITHTI (a designed peptide according to experiment) [P15]”: the “Number x” value in experiment [1] is listed as “negative”.

For “ITHTI (a designed peptide according to experiment) [P7]”, the “Number x” value in experiment [1] came to 17 days.

As for “LITHT (a designed peptide according to experiment) [P4]”, the “Number x” value in experiment [1] was found to be 17 days.

Take “LITHTI (a designed peptide according to experiment) [P17]”: the “Number x” value in experiment [1] turned out to be 22 days.

As for “PSTHVL (a designed peptide according to experiment) [P8]”, the “Number x” value in experiment [1] came to 15 days.

For the substance PSTHVLGSFGS [P18], in experiment [1], the “Number x” value turned out to be 22 days.

As for “PSTHVLI (a designed peptide according to experiment) [P9]”, the “Number x” value in experiment [1] was “negative”.

In the case of PSTHVLIFGSG [P24], the “Number x” value in experiment [1] is “negative”.

As for “PSTHVLIGSFG (a designed peptide according to experiment) [P19]”, in experiment [1], the “Number x” value is “negative”.

On to “PSTHVLIT (a designed peptide according to experiment) [P10]”, for which, in experiment [1], the “Number x” value was “negative”.

As to “PSTHVLITGSF (a designed peptide according to experiment) [P20]”, in experiment [1], the “Number x” value was “negative”.

Turning to “PSTHVLITGSG (a designed peptide according to experiment) [P25]”, the “Number x” value in experiment [1] was 22 days.

Take “PSTHVLITH (a designed peptide according to experiment) [P11]”: in experiment [1], the “Number x” value is 19 days.

Take “PSTHVLITHGS (a designed peptide according to experiment) [P21]”: the “Number x” value in experiment [1] worked out at 23 days.

As to “PSTHVLITHSG (a designed peptide according to experiment) [P26]”, the “Number x” value in experiment [1] was found to be 22 days.

Turning to “PSTHVLITHT (a designed peptide according to experiment) [P12]”, the “Number x” value in experiment [1] worked out at 19 days.

For “PSTHVLITHTG (a designed peptide according to experiment) [P22]”, the “Number x” value in experiment [1] was 23 days.

With “PSTHVLITHTI (a designed peptide according to experiments) [P1]”, in experiment [2], the “activation of marker CK15 of hair follicle stem cells” value is given as “obviously activated”. Further, the “activation of Wnt3a in hair follicle stem cells” value in experiment [3] is recorded as “obviously activated”. Further, the “activation of β-catenin in hair follicle stem cells” value in experiment [4] is listed as “effect on activating or regenerating the hair follicle stem cells; also recorded: activated”. Besides, the “relative luciferase activity (activity of β-catenin)” value in experiment [5] and in experiment [6] was “increase the activity of β-catenin; also recorded: enhance activity of β-catenin” throughout. Further, the “gene expression of Wnt16 (RT-PCR)” value in experiment [7] (FIG. 8, listed as SEQ ID No: 1) is recorded as “activate the gene expression”; in experiment [7] (FIG. 8, listed as iPept-1) it was “increases”. Besides, in experiment [7] (FIG. 9), the “gene expression of Wnt16 (QRT-PCR)” value is listed as “enhances the gene expression”. Further, the “gene expression of Wnt7b (RT-PCR)” value in experiment [8] (FIG. 8, listed as SEQ ID No: 1) was “activate the gene expression”; in experiment [8] (FIG. 8, listed as iPept-1), “increases”. In experiment [1], the “Number x” value was 17 days.

Regarding “PSTHVLITHTIS (a designed peptide according to experiment) [P29]”, the “Number x” value in experiment [1] amounted to 22 days.

Take “PSTHVLITHTISR (a designed peptide according to experiment) [P28]”: the “Number x” value in experiment [1] is “negative”.

Consider “PSTHVLITHTISRI (a designed peptide according to experiment) [P6]”, for which the “Number x” value in experiment [1] came to 19 days.

“PSTHVLITHTS (a designed peptide according to experiment) [P27]”: in experiment [1], the “Number x” value is reported as “negative”.

Take “PSTHVLLTHTI (a designed peptide according to experiments) [P41]”: the “Number x” value in experiment [1] was found to be 19 days.

For “PSTHVLSFGSG (a designed peptide according to experiment) [P23]”, the “Number x” value in experiment [1] is “negative”.

With “STHVL (a designed peptide according to experiment) [P5]”, the “Number x” value in experiment [1] stood at 19 days.

Regarding “STHVLITHTI (a designed peptide according to experiment) [P13]”, the “Number x” value in experiment [1] was “negative”.

Take “THVLITHTI (a designed peptide according to experiment) [P14]”: the “Number x” value in experiment [1] is on record as “negative”.

As to “VLITH (a designed peptide according to experiment) [P3]”, the “Number x” value in experiment [1] was determined as 17 days.

“VLITHTI (a designed peptide according to experiment) [P16]”: the “Number x” value in experiment [1] is listed as “negative”.
